Experimental data: patent US20030232862A1 (priority 2002, published 2003)
Entries after “also recorded” stand apart in the source; their conditions may differ. Where a name gives a salt, the structure may show the parent alone.

What was measured:
human breast xenograft = conditions: in vivo; cited from earlier work
[1] = target: cGMP PDE purified from human colon HT-29 cultured tumor cells (Homo sapiens, UniProt O76074); assay: cGMP PDE inhibition assay; assay type: biochemical; conditions: for PDE Inhibition: Table 9 qualitative profile; for IC50: read-out: IC50 for inhibition of cGMP PDE
[2] = target: T1, PDE Peak A (PDE5) from SW480 cells (Homo sapiens, UniProt O76074); assay: cGMP hydrolysis by PDE Peak A (PDE5) isolated from SW480 cells; assay type: biochemical
T1 construct: To isolate the novel phosphodiesterase from SW480, approximately four hundred million SW480 cells were grown to confluence; endogenous in cells; host or cells: SW480 colon cancer cells; 105,000 g supernatant, DEAE-Trisacryl M fraction

[3] = target: T2, purified cyclooxygenase (Type 1) from ram seminal vesicles (Ovis aries, UniProt P05979); assay: Purified cyclooxygenase (Type 1) activity; assay type: biochemical; conditions: FIG. 5
T2 construct: using purified cyclooxygenase from ram seminal vesicles as described previously; from tissue; host or cells: ram seminal vesicles
T2 sequence (P05979 25-600): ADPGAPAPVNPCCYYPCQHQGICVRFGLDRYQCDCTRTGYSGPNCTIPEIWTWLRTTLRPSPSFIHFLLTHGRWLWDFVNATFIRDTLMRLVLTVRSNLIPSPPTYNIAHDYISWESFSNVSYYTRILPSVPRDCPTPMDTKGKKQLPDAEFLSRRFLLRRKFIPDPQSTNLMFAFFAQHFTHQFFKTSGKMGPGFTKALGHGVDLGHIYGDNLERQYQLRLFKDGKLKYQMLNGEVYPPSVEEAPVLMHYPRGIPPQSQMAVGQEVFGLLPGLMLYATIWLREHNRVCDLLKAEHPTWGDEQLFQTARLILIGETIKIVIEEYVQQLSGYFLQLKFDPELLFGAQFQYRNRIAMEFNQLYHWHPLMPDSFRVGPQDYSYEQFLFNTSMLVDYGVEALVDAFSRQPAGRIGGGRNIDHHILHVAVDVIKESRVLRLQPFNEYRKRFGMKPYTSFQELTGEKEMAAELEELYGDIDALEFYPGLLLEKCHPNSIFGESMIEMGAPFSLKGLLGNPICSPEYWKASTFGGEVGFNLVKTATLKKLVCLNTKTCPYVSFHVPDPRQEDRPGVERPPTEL

[4] = system: HT-29 colon adenocarcinoma cells; assay: Apoptosis by DNA fragmentation assay in HT-29 cells; assay type: cell-based, human; conditions: for Apoptosis: Table 9 qualitative profile; on Apoptosis: key: −: Not active; +: Slightly active; + +: Moderately active; + + +: Strongly active; + + + +: Highly active
[5] = target: T3, novel cGMP-specific PDE Peak B from SW480 cells (Homo sapiens, UniProt O00408); assay: cGMP hydrolysis by novel PDE Peak B isolated from SW480 cells; assay type: biochemical
T3 construct: IC50 Peak B (μM)

HT-29 cells = assay: Growth inhibition of HT-29 cells (SRB assay; trypan blue counting in time course); assay type: cell-based, human; conditions: for Growth Inhibition: Table 9 qualitative profile
[6] = system: premalignant lesions in mouse mammary gland organ culture; assay: Mammary gland organ culture model; assay type: cell-based; conditions: Table 9 qualitative profile; further: key: −: Not active; +: Slightly active; + +: Moderately active; + + +: Strongly active; + + + +: Highly active
From the text: Test compounds identified by the above methods can be tested for antineoplastic activity by their ability to inhibit the incidence of pre-neoplastic lesions in a mammary gland organ culture system. This mouse mammary gland organ culture technique has been successfully used by other investigators to study the effects of known antineoplastic agents such as certain NSAIDs, retinoids, tamoxifen, selenium, and certain natural products, and is useful for validation of the screening method of the present invention.
For example, female BALB/c mice can be treated with a combination of estradiol and progesterone daily, in order to prime the glands to be responsive to hormones in vitro. The animals are sacrificed, and thoracic mammary glands are excised aseptically and incubated for ten days in growth media supplemented with insulin, prolactin, hydrocortisone, and aldosterone. DMBA (7,12-dimethylbenz(a)anthracene) is added to medium to induce the formation of premalignant lesions. Fully developed glands are then deprived of prolactin, hydrocortisone, and aldosterone, resulting in the regression of the glands but not the pre-malignant lesions.
The test compound is dissolved in DMSO and added to the culture media for the duration of the culture period. At the end of the culture period, the glands are fixed in 10% formalin, stained with alum carmine, and mounted on glass slides. The incidence of forming mammary lesions is the ratio of the glands with mammary lesions to […]. The incidence of mammary lesions in test compound treated glands is compared with that of the untreated glands.
The extent of the area occupied by the mammary lesions can be quantitated by projecting an image of the gland onto a digitation pad. The area covered by the gland is traced on the pad and considered as 100% of the area. The space covered by each of the non-regressed structures is also outlined on the digitization pad and quantitated by the computer.
Mammary gland organ culture experiment were performed as previously described (Mehta and Moon, Cancer Research, 46: 5832-5835, 1986).

Cyclooxygenase (COX) = target: T4, Cyclooxygenase (COX) (Ovis aries, UniProt P05979); assay: COX inhibition assay, single dose screen (Table 2); assay type: biochemical
T4 sequence (P05979 25-600): T2 sequence (P05979 25-600)

[7] = system: PDE4 purified from human colon HT-29 cultured tumor cells; assay: PDE4 inhibition assay; assay type: biochemical
Procedure: (Thompson, W. J., Teraski, W. L., Epstein, P. M., Strada, S. J., Advances in Cyclic Nucleotide Research, 10:69-92, 1979, which is incorporated herein by reference). […] The mixture is incubated at 30° C. for 10 minutes with isolated PDE of this invention. Reactions are terminated, for example, by boiling the reaction mixture for 75 seconds. After cooling on ice, 100 μl of 0.5 mg/mL snake venom (O. Hannah venom available from Sigma) is added and incubated for 10 minutes at 30° C. This reaction is then terminated by the addition of an alcohol, e.g. 1 mL of 100% methanol. Assay samples are applied to 1 mL Dowex 1-X8 column; and washed with 1 mL of 100% methanol. The amount of radioactivity in the breakthrough and the wash from the column is combined and measured with a scintillation counter. The degree of phosphodiesterase inhibition is determined by calculating the amount of radioactivity in drug-treated reactions and comparing against a control sample (a reaction mixture lacking the tested compound but with drug solvent).

[8] = system: SW-480 colon adenocarcinoma cells; assay: Apoptosis fold induction protocol (DNA fragmentation, Table 4); conditions: Homo sapiens, SW480, read-out: Fold induction at 100 μM (apoptosis), 100 μM; cell line not given
[9] = target: T5, cGMP binding sites of GST-cGB-PDE5 fusion protein (Homo sapiens, UniProt O76074); assay: cGMP binding assay with GST-cGB-PDE5 fusion protein; conditions: 3H-cGMP 2 μM
T5 construct: made in house; host or cells: E. coli BL21 (DE3)

[10] = system: SW-480 colon adenocarcinoma cells
[11] = Single, escalating dose human study; assay type: in vivo
28-day study in rats = assay type: in vivo
[12] = system: PrEC primary prostate epithelial cells derived from normal prostate; assay: Histone-associated DNA fragmentation in PrEC cells; assay type: cell-based; conditions: 50 μM, up to 4 days
Procedure: (§1) The androgen-sensitive prostate tumor cell line, LNCaP (from ATCC (Rockville, Md.)) was propagated under standard conditions using […] medium containing 5% fetal calve serum and 2 mM glutamine. Primary prostate epithelial cell cultures (PrEC) derived from normal prostate (from Clonetics Inc. (San Diego, Calif.)) were grown under the same conditions as the tumor cell line except a serum-free medium optimized for the growth of such cultures was used (Clonetics Inc). For the experiments, LNCaP or PrEC cells were seeded in 96 well plates at a density of 10,000 cells per well. After 24 hours, the cells were treated with either vehicle (0.1% DMSO) or 50 μM Compound I (free base) solubilized in DMSO. After various drug treatment times (4, 24, 48, 72, or 99 hours) the cells were lysed and processed for measurement of histone-associated DNA as an indicator of apoptotic cell death (see, Piazza et al., Cancer Research 57: 2452-2459, 1997).

[13] = system: LNCaP prostate tumor cell line; assay: Histone-associated DNA fragmentation in LNCaP cells; assay type: cell-based; conditions: 50 μM, up to 4 days
Procedure: as §1

[14] = Seven-day dose-range finding study in rats; assay type: in vivo; conditions: any dose level
[15] = dog, in vivo

T3 sequence (O00408 whole entry): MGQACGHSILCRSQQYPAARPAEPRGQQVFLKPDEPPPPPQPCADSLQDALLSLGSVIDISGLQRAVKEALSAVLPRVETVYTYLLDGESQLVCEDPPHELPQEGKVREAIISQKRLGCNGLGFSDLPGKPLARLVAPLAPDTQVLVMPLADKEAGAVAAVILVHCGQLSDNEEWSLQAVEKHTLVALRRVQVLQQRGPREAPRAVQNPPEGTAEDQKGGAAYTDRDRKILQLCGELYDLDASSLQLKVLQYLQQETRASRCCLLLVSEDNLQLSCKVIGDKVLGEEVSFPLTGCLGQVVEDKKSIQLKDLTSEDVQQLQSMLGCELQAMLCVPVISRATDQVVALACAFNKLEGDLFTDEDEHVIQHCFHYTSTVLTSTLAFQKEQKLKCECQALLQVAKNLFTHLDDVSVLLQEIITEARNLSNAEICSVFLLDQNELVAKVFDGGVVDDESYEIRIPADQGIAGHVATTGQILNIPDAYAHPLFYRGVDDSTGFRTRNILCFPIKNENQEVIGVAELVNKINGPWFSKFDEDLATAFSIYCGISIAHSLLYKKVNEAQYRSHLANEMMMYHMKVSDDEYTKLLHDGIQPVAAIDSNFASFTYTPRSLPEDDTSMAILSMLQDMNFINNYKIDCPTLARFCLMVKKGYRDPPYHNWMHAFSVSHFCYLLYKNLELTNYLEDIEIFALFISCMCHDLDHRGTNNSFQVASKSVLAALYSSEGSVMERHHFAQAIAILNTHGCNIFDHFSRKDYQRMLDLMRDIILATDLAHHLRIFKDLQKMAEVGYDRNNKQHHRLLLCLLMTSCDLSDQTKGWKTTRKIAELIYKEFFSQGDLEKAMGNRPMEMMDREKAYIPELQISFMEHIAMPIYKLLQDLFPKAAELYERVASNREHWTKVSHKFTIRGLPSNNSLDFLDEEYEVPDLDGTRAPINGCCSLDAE

COc1cc2ncnc(Nc3ccc(F)c(Cl)c3)c2cc1OCCCN1CCOCC1 [Iressa, 4-quinazolinamine, N-(3-chloro-4-fluorophenyl)-7-methoxy-6-[3-(4-morpholinyl)propoxy]-(9CI)]
human breast xenograft growth (human breast xenograft): inhibits human breast xenograft growth

COc1cc(/C=C2/C(C)=C(CC(=O)NCc3ccccc3)c3cc(F)ccc32)cc(OC)c1OC [Compound E, (Z)-5-Fluoro-2-methyl-1-(3,4,5-trimethoxybenzylidene)-3-indenylacetamide, N-benzyl]
% Inhibition at 10 μM (cGMP PDE) [1]: 75%
PDE Inhibition [1]: + + + +
IC50 [1]: 0.08 µM
competitive (with cGMP) inhibition/binding, Peak A [2]: competitively (with cGMP) bind; also recorded: competitively inhibited
COX-I inhibition [3]: neither test compound B and E significantly inhibits COX-I
Apoptosis [4]: + + + +
competitive (with cGMP) inhibition/binding, Peak B [5]: competitively (with cGMP) binds; also recorded: competitively inhibited
Growth Inhibition (HT-29 cells): + + + +
Mammary Gland Organ Culture [6]: + + + +

COc1cc(/C=C2/C(C)=C(CC(=O)O)c3cc(F)ccc32)cc(OC)c1OC [Compound B, (Z)-5-Fluoro-2-methyl-1-(3,4,5-trimethoxybenzylidene)-3-acetic acid]
PDE Inhibition [1]: + + +
inhibition at 10 µM ([1]; read-out: % Inhibition at 10 μM (cGMP PDE), 10 μM): < 25%
IC50 [1]: 18 µM
inhibition at 20 µM ([1]; read-out: inhibition of cGMP PDE at 20 μM, 20 μM): > 50%
inhibition at 100 µM (Cyclooxygenase (COX)): < 25%
COX Inhibition (Cyclooxygenase (COX); Table 9 qualitative profile): −
COX-I inhibition [3]: neither test compound B and E significantly inhibits COX-I
EC50 ([4]; Homo sapiens, HT-29, 48 hours): ~175 µM
Apoptosis [4]: + + +
IC50 [7]: 58 µM
fold induction at 100 µM [8]: > 2
competition with cGMP in binding of GST-cGB-PDE5 [9]: do not bind to the cGMP binding sites of PDE5
Growth Inhibition (HT-29 cells): + + +
Mammary Gland Organ Culture [6]: + +

CCN(CC)CCSC12CC(=O)OC1(C)/C(=C/c1ccc(S(C)(=O)=O)cc1)c1ccc(F)cc12 (racemic) [A, rac-threo-(E)-1-(N,N′-diethylaminoethanethio)-1-(butan-1′,4′-olido)-[3′,4′:1,2]-6-fluoro-2-methyl-3-(p-methylsulfonylbenzylidene)-indan]
% Inhibition at 10 μM (cGMP PDE) [1]: <25%
PDE Inhibition [1]: −
% Inhibition at 100 μM (cyclooxygenase) (Cyclooxygenase (COX); 100 μM): <25%
Apoptosis [4]: + +
Fold induction at 100 μM (apoptosis) [10]: <2.0 fold
% Inhibition at 100 μM (growth) (HT-29 cells; 100 μM): 68%
Growth Inhibition (HT-29 cells): + + +
Mammary Gland Organ Culture [6]: + +

CC1=C(CC(=O)NCc2ccccc2)c2cc(F)ccc2/C1=C\c1ccncc1 [Compound I, (Z)-5-fluoro-2-methyl-(4-pyridylidene)-3-(N-benzyl)indenylacetamide hydrochloride]
safety in human study [11]: safe
liver weights, 28-day study (28-day study in rats; 2000 mg/kg/day): statistically significant increase in liver weights
thyroid weights, 28-day study (28-day study in rats; 2000 mg/kg/day): statistically significant increases in thyroid weights
histopathological evaluation, 28-day study (28-day study in rats; generally limited to a small number of animals at 2000 mg/kg/day): traces of follicular cell hypertrophy, increased numbers of mitotic figures (suggestive of possible cell proliferation) in the thyroid gland and mild centrilobular hypertrophy in the liver
DNA fragmentation in PrEC cells [12]: did not affect DNA fragmentation
histone-associated fragmented DNA in LNCaP cell cultures [13]: time-dependent increase
hematology, blood chemistry, microscopic pathology, seven-day study [14]: No hematological or blood chemistry changes nor any microscopic pathology changes
drug-related effects, single and seven consecutive doses in dogs [15]: At no time in either dosing phase were any obvious signs of drug-related effects observed
signs of toxicity, single dose in dogs ([15]; 1000 mg/kg): no signs of toxicity
